For one assay, the target named is T1, GLUT1W388A (Homo sapiens, UniProt P11166, W388A).
T1 construct: Full length DNA was subcloned into pFastBac1 (Life Technologies) vector with a N-terminal hexahistidine tag; hexahistidine (thrombin-cleavable) (N, cleaved yes); made in house; host or cells: Sf21 insect cells (baculovirus, pFastBac1)
T1 sequence (P11166 1-492 W388A): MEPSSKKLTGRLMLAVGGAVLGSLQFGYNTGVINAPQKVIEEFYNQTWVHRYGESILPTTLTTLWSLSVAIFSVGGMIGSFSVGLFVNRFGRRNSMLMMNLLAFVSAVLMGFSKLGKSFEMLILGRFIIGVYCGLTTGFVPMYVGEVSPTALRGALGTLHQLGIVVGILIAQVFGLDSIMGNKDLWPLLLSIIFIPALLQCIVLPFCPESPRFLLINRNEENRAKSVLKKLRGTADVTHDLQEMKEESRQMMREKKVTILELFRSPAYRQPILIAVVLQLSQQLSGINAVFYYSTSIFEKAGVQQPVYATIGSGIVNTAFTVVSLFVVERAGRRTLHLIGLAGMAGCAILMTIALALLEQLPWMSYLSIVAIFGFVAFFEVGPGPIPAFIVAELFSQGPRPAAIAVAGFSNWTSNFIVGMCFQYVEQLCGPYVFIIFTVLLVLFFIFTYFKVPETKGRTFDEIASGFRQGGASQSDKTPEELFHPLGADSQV
Kind of assay: entrance counter-flow transport assay, glucose transport by GLUT1W388A proteoliposomes. The format is biochemical. The settings on record: any tested concentration, up to 20 mM. On the procedure: (§1) We expressed and purified GLUT1W388A and GLUT5A396W. Purified mutant proteins were reconstituted into proteoliposomes and activity was determined by entrance counter-flow transport assay.
(§2) cDNAs of GLUT1 and GLUT5 were purchased from Open Biosystems (GE Healthcare). Full length DNA was subcloned into pFastBac1 (Life Technologies) vector with a N-terminal hexahistidine tag. Bacmids were generated in DH10Bac E. coli cells (Life Technologies). Baculoviruses were produced using Cellfectin II Reagent and amplified in Sf21 insect cells (Life Technologies). Cells were maintained at 26 °C, and P1 (10^6 pfu/mL) was collected from infected cells after 72 hours. Sf21 cells were propagated in HyClone SFX-Insect media (GE Healthcare), supplemented with 5% fetal bovine serum (Biowest), antibiotics (100 units/mL Penicillin G and 100 μg/mL streptomycin sulfate) and amphotericin B (2.5 μg/mL). For recombinant protein expression, Sf21 cells in suspension culture at 2 × 10^6 cells/ml were infected with P3 viral stock (10^8 pfu/mL), at an MOI of 1.0 pfu/cell. Four days after viral infection, cells from 2 L culture were collected by centrifugation at 2,000 × g and 25 °C. […]

For a further assay, the target named is T2, GLUT5A396W (Homo sapiens, UniProt P22732, A396W).
T2 construct: Full length DNA was subcloned into pFastBac1 (Life Technologies) vector with a N-terminal hexahistidine tag; hexahistidine (thrombin-cleavable) (N, cleaved yes); made in house; host or cells: Sf21 insect cells (baculovirus, pFastBac1)
T2 sequence (P22732 1-501 A396W): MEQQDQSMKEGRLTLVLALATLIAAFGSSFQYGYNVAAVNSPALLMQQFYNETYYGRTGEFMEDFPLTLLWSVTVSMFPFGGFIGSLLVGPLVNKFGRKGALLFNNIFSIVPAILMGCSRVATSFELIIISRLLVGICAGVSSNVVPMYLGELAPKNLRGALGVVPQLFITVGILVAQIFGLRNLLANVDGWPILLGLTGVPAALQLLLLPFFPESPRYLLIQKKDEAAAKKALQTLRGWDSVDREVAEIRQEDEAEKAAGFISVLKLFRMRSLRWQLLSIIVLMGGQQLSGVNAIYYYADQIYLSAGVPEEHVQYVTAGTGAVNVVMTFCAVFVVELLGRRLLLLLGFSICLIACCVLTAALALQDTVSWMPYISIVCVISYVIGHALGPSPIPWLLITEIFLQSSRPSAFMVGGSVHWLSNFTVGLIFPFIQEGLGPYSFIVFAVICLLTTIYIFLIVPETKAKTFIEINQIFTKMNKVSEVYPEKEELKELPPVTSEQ
Kind of assay: entrance counter-flow transport assay, fructose transport by GLUT5A396W proteoliposomes. The format is biochemical. On the procedure: as §1, §2

pIC50: −log10 of the molar value. Several values for one entry are separate records, joined by “and”; a condition that tells them apart may be missing. Equal values may be shown once. Entries after “also recorded” stand apart in the source; their conditions may differ.

A word on the pIC50: it is the IC50 on a negative log10 scale, so that one unit is a factor of ten.

As to `C=C1C[C@@]23CC[C@H]4[C@@](C)(CCC[C@@]4(C)C(=O)O[C@@H]4O[C@H](CO)[C@@H](O)[C@H](O)[C@H]4O)[C@@H]2CC[C@]1(O[C@@H]1O[C@H](CO)[C@@H](O)[C@H](O)[C@H]1O)C3` [Rub, Rubusoside], the “inhibition of glucose transport by GLUT1W388A” value on GLUT1W388A is reported as “not inhibited; also recorded: did not inhibit”. For the same compound, at GLUT5A396W, the pIC50 is 1.99 and 2.00.

The values above are taken from paper PMC4549712, “Inhibition of human GLUT1 and GLUT5 by plant carbohydrate products; insights into transport specificity” (Scientific Reports, 2015).
